# Source: ChEMBL document CHEMBL3098061, “Design and synthesis of an aminopiperidine series of γ-secretase modulators” (Bioorg Med Chem Lett, 2014)
# Test system: Mus musculus
# Test: Reduction in amyloid beta42 production in wild type mouse hippocampus at 100 mg/kg, po
# Assay type: functional
# Design: scale not given: the % may be the effect or the level left
# Details: not given
row,Compound,Activity
1,COc1cc(C(=O)N[C@H]2CCCN(Cc3ccc(Br)cc3)C2)ccc1-n1cnc(C)c1,55%

# Test system: Mus musculus
# Test: Reduction in amyloid beta42 production in wild type mouse plasma at 100 mg/kg, po
# Assay type: functional
# Design: scale not given: the % may be the effect or the level left
# Details: not given
row,Compound,Activity
1,COc1cc(C(=O)N[C@H]2CCCN(Cc3ccc(Br)cc3)C2)ccc1-n1cnc(C)c1,66%

# Test system: not listed separately
# Test: Permeability of the compound at pH 7.4 by PAMPA
# Assay type: ADME
# Details: read-out: permeability
row,Compound,Papp
1,COc1cc(C(=O)N[C@H]2CCCN(Cc3ccc(Br)cc3)C2)ccc1-n1cnc(C)c1,50 ×10⁻⁶ cm/s

# Test system: not listed separately
# Test: Aqueous solubility of the compound at pH 7.4
# Assay type: physicochemical
# Details: not given
row,Compound,solubility
1,COc1cc(C(=O)N[C@H]2CCCN(Cc3ccc(Br)cc3)C2)ccc1-n1cnc(C)c1,8 µg/mL

# Test system: not listed separately
# Test: Modulation of gamma-secretase in rat fetus primary neurons assessed as inhibition of amyloid beta42 production after 1 to 3 days by ELISA
# Details: not given
row,Compound,IC50
1,COc1cc(C(=O)N[C@H]2CCCN(Cc3ccc(Br)cc3)C2)ccc1-n1cnc(C)c1,250 nM

# Species on record: Rattus norvegicus
# Test: Modulation of gamma-secretase in rat fetus primary neurons assessed as inhibition of amyloid beta42 production at 2.5 uM after 1 to 3 days by ELISA
# Details: not given
row,Compound,inhibition
1,COc1cc(C(=O)N[C@H]2CCCN(C(=O)c3ccc(C(F)(F)F)cc3)C2)ccc1-n1cnc(C)c1,34%
2,COc1cc(C(=O)NC2CCCN(Cc3ccc(C)cc3)C2)ccc1-n1cnc(C)c1 (racemic),82%
3,COc1cc(C(=O)NC2CCCN(C(=O)NCc3ccc(Br)cc3)C2)ccc1-n1cnc(C)c1 (racemic),47%
4,COc1cc(C(=O)N2CC3CC2CN3Cc2cccc(C(F)(F)F)c2)ccc1-n1cnc(C)c1 (configuration not stated),51%
5,COc1cc(C(=O)NC2CC3CCC(C2)N3Cc2cccc(C(F)(F)F)c2)ccc1-n1cnc(C)c1 (configuration not stated),40%
6,COc1cc(C(=O)N[C@@H]2CCCN(Cc3ccc(Br)cc3)C2)ccc1-n1cnc(C)c1,55%
7,COc1cc(C(=O)N[C@@H]2CCCN(Cc3cccc(C(F)(F)F)c3)C2)ccc1-n1cnc(C)c1,72%
8,COc1cc(C(=O)NC2CCCN(C(=O)NCc3ccccc3)C2)ccc1-n1cnc(C)c1 (racemic),25%
9,COc1cc(C(=O)NC2CCCN(Cc3ccccc3C)C2)ccc1-n1cnc(C)c1 (racemic),62%
10,COc1cc(C(=O)N[C@H]2CCCN(Cc3ccc(Br)cc3)C2)ccc1-n1cnc(C)c1,97%
11,CCN(C(=O)c1ccc(-n2cnc(C)c2)c(OC)c1)C1CCCN(Cc2cccc(C(F)(F)F)c2)C1 (configuration not stated),< 1%
12,COc1cc(C(=O)NC2CCCN(Cc3cccc(C)c3)C2)ccc1-n1cnc(C)c1 (racemic),54%
13,COc1cc(C(=O)N[C@@H]2CCCN(Cc3ccc(C)cc3)C2)ccc1-n1cnc(C)c1,36%
14,COc1cc(C(=O)NC2CCCN(C(=O)NCc3ccc(C)cc3)C2)ccc1-n1cnc(C)c1 (racemic),28%
15,COc1cc(C(=O)NC2CCN(Cc3cccc(C(F)(F)F)c3)CC2)ccc1-n1cnc(C)c1,78%
16,COc1cc(C(=O)N[C@H]2CCCN(C(=O)c3ccc(Br)cc3)C2)ccc1-n1cnc(C)c1,64%

row,Compound,inhibition
1,COc1cc(C(=O)NC2CCCN(Cc3ccccc3)C2)ccc1-n1cnc(C)c1 (racemic),37%
2,COc1cc(C(=O)N[C@@H]2CCCN(Cc3ccc(C(F)(F)F)cc3)C2)ccc1-n1cnc(C)c1,57%
3,COc1cc(C(=O)NC2CCN(Cc3cccc(C(F)(F)F)c3)C2)ccc1-n1cnc(C)c1 (configuration not stated),31%
4,COc1ccc(CN2CCCC(NC(=O)c3ccc(-n4cnc(C)c4)c(OC)c3)C2)cc1 (racemic),45%
5,COc1cc(C(=O)N[C@H]2CCCN(Cc3cccc(C(F)(F)F)c3)C2)ccc1-n1cnc(C)c1,82%
6,COc1cc(C(=O)NC2CCCN(Cc3ccc(C(F)(F)F)cc3)C2)ccc1-n1cnc(C)c1 (racemic),90%
7,COc1cc(C(=O)N[C@H]2CCCN(Cc3ccc(C(F)(F)F)cc3)C2)ccc1-n1cnc(C)c1,92%
8,COc1cc(C(=O)N2CCC(NCc3cccc(C(F)(F)F)c3)C2)ccc1-n1cnc(C)c1 (configuration not stated),39%
9,COc1cc(C(=O)N[C@H]2CCCN(Cc3ccc(C)cc3)C2)ccc1-n1cnc(C)c1,90%
10,COc1cc(C(=O)N[C@H]2CCCN(C(=O)c3ccc(C)cc3)C2)ccc1-n1cnc(C)c1,55%
11,COc1cc(C(=O)NC2CCCN(Cc3ccc(Br)cc3)C2)ccc1-n1cnc(C)c1 (racemic),93%
12,COc1cc(C(=O)N2CCN(Cc3cccc(C(F)(F)F)c3)CC2)ccc1-n1cnc(C)c1,18%
13,COc1cc(C(=O)N(C)C2CCCN(Cc3cccc(C(F)(F)F)c3)C2)ccc1-n1cnc(C)c1 (configuration not stated),< 1%
14,COc1cc(C(=O)N2CCCC(NCc3cccc(C(F)(F)F)c3)C2)ccc1-n1cnc(C)c1 (configuration not stated),17%
15,COc1cc(C(=O)N(C(C)C)C2CCCN(Cc3cccc(C(F)(F)F)c3)C2)ccc1-n1cnc(C)c1 (configuration not stated),< 1%
16,COc1cc(C(=O)N2C3CCC2CN(Cc2cccc(C(F)(F)F)c2)C3)ccc1-n1cnc(C)c1,19%
